Results as given in patent US20230348450A1, “CARBOXYLIC ACID-CONTAINING COMPOUNDS AS MODULATORS OF BIS-PHOSPHOGLYCERATE MUTASE FOR THE TREATMENT OF SICKLE CELL DISEASE” (Genzyme Corporation, priority 2020, published 2023).

How the values were obtained:
[1] = biological target: human Bisphosphoglycerate mutase (hBPGM) (Homo sapiens (Human), UniProt P07738); assay: BPGM Phosphatase Assay; assay type: biochemical; details: Table 6 additional results; read-out: huBPGM: phosphatase Enzyme EC50
Protocol: Solutions of the test compounds were then added to the plate and the DMSO content was normalized across the plate. The plate was incubated at RT for 15 min. Next, the substrate 2,3-BPG (5 μL) was added to all the wells, and the plate was sealed and incubated for 24 hr at RT. After incubation, BIOMOL green dye (40 μL) was added to all the wells, the plate was shaken to mix, and the plate was incubated at RT for 20-30 min.

hBPGM = hBPGM (Homo sapiens (Human), UniProt P07738); assay: BPGM Synthase Assay; assay type: biochemical; details: Table 6 additional results; read-out: huBPGM: synthase Enzyme IC50
In short: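 BPGM (5 nM) with GAPDH (0.4 U/mL) was incubated with compound for 30 min at RT in pH 7.4 Tris buffer with 3.23 mM KH2PO4 and 1 mM DTT. Reaction ran 60 min with NAD, 3PG and GAP (substrate solution 2 mM, 20 μM and 800 μM). After koningic acid stop, NADH fluorescence was read, then resorufin from diaphorase/resazurin coupling.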

human Bisphosphoglycerate mutase (hBPGM), sequence (P07738 whole entry): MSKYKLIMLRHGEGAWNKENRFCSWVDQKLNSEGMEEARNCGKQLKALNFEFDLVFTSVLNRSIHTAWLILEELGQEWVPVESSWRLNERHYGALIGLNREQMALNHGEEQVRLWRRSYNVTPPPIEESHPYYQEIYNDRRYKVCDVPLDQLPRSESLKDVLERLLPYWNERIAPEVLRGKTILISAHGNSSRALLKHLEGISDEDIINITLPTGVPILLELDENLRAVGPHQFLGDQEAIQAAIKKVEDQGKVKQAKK
hBPGM, sequence (P07738 whole entry, looked up): as the sequence (P07738 whole entry) above

Structure (SMILES)	EC50 [1]	IC50 (hBPGM)
Cc1nc(COCC(N)=O)sc1-c1csc(-c2cc(O)c(C(=O)O)cc2F)n1 [Example 156]	1500 nM	350 nM
Cc1nc(CNC(=O)c2cccnn2)sc1-c1cccc(-c2cc(O)c(C(=O)O)cc2F)n1 [Example 153]	70 nM	99 nM
Cc1nc(Cc2cccnc2)sc1-c1cccc(-c2ccc(C(=O)O)cc2)c1 [Example 277]	1100 nM	860 nM
Cc1nc(COc2ncccn2)sc1-c1cccc(-c2csc(C(=O)O)n2)n1 [Example 87]	8700 nM	3400 nM
Cc1nc(CNC(=O)c2cccnc2)sc1-c1csc(-c2cc(O)c(C(=O)O)cc2F)n1 [Example 199]	320 nM	67 nM
Cc1nc(CNc2ccn(C)n2)sc1-c1csc(-c2cc(O)c(C(=O)O)cc2F)n1 [Example 221]	35 nM	90 nM
COC(=O)NCc1nc(C)c(-c2csc(-c3ccc(C(=O)O)cc3F)n2)s1 [Example 238]	> 25000 nM	1300 nM
Cc1nc(COc2ncccn2)sc1-c1cccc(-c2cnc(C(=O)O)s2)n1 [Example 94]	> 25000 nM	11000 nM
Cc1nc(Cc2ccn(C)n2)sc1-c1cccc(-c2ccc(C(=O)O)c(O)c2)c1 [Example 253]	150 nM	190 nM
Cc1nc(CNC(=O)CN(C)C)sc1-c1csc(-c2cc(O)c(C(=O)O)cc2F)n1 [Example 120]	> 25000 nM	500 nM
Cc1nc(CNC(=O)c2ccccc2)sc1-c1csc(-c2cc(O)c(C(=O)O)cc2F)n1 [Example 212]	100 nM	160 nM
Cc1nc(CN)sc1-c1csc(-c2cc(O)c(C(=O)O)cc2F)n1 [Example 243]	990 nM	830 nM
COC(=O)NCc1nc(C)c(-c2csc(-c3cc(O)c(C(=O)O)cc3Cl)n2)s1 [Example 211]	190 nM	100 nM
Cc1nc(C(C)NC(=O)c2cccnn2)sc1-c1csc(-c2cc(O)c(C(=O)O)cc2F)n1 (stereo not drawn) [Example 151]	70 nM	65 nM
Cc1nc(COc2ccnn2C)sc1-c1csc(-c2cc(O)c(C(=O)O)cc2F)n1 [Example 218]	170 nM	130 nM
Cc1nc(COc2ccccn2)sc1-c1csc(-c2cc(O)c(C(=O)O)cc2F)c1 [Example 146]	50 nM	460 nM
Cc1nc(CNC(=O)N2CCCC2)sc1-c1csc(-c2cc(O)c(C(=O)O)cc2F)n1 [Example 198]	190 nM	50 nM
Cc1nc(CNC(=O)OC(C)C)sc1-c1csc(-c2cc(O)c(C(=O)O)cc2F)n1 [Example 234]	80 nM	84 nM
Cc1nc(COc2cnccn2)sc1-c1csc(-c2cc(O)c(C(=O)O)cc2F)n1 [Example 140]	30 nM	95 nM
Cc1nc(Cc2ccn(C)n2)sc1-c1csc(-c2ccc(C(=O)O)c(O)c2)n1 [Example 189]	330 nM	120 nM
COC(=O)NCc1nc(C)c(-c2csc(-c3cc(O)c(C(=O)NCC(=O)NCC(=O)O)cc3F)n2)s1 [Example 119]	1800 nM	340 nM
COCCOCCOCCOCCOCC(=O)NCc1nc(C)c(-c2csc(-c3ccc(C(=O)O)c(O)c3)n2)s1 [Example 121]	3200 nM	1800 nM
Cc1nc(CNC2CCCOC2)sc1-c1cccc(-c2ccc(C(=O)O)cc2)c1 (stereo not drawn) [Example 52]	> 25000 nM	16000 nM
Cc1nc(C(C)NC(=O)C(C)(C)C)sc1-c1csc(-c2cc(O)c(C(=O)O)cc2F)n1 (stereo not drawn) [Example 141]	70 nM	130 nM
Cc1nc(C)c(-c2csc(-c3cc(O)c(C(=O)O)cn3)n2)s1 [Example 284]	2900 nM	2800 nM
Cc1nc(Cc2ccccn2)sc1-c1cccc(-c2ccc(C(=O)O)c(O)c2)c1 [Example 282]	110 nM	750 nM
Cc1nc(C)c(-c2cc(-c3cc(O)c(C(=O)O)cc3F)sn2)s1 [Example 183]	280 nM	660 nM
